Results taken from PubChem BioAssay (NCI).
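These data come from cells grown in 96-well plates and exposed to compound for 48 hours at five concentrations. TGI: total growth inhibition.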

Key:
Test in all cases: NCI tumour cell line growth inhibition, 48 h
HS 578T breast = tested on: HS 578T breast
SK-OV-3 ovarian = tested on: SK-OV-3 ovarian
MDA-MB-435 = tested on: MDA-MB-435
NCI-H522 lung = tested on: NCI-H522 lung
PC-3 prostate = tested on: PC-3 prostate
M14 melanoma = tested on: M14 melanoma
UO-31 renal = tested on: UO-31 renal
DU-145 prostate = tested on: DU-145 prostate
NCI-H226 lung = tested on: NCI-H226 lung
OVCAR-8 ovarian = tested on: OVCAR-8 ovarian
KM12 colon = tested on: KM12 colon
SN12C renal = tested on: SN12C renal
BT-549 breast = tested on: BT-549 breast
UACC-62 melanoma = tested on: UACC-62 melanoma
NCI-H23 lung = tested on: NCI-H23 lung
RPMI-8226 leukemia = tested on: RPMI-8226 leukemia
SK-MEL-5 melanoma = tested on: SK-MEL-5 melanoma
OVCAR-3 ovarian = tested on: OVCAR-3 ovarian

Structure (SMILES)	TGI (HS 578T breast) [µM]	TGI (SK-OV-3 ovarian) [µM]	TGI (MDA-MB-435) [µM]	TGI (NCI-H522 lung) [µM]	TGI (PC-3 prostate) [µM]	TGI (M14 melanoma) [µM]	TGI (UO-31 renal) [µM]	TGI (DU-145 prostate) [µM]	TGI (NCI-H226 lung) [µM]	TGI (OVCAR-8 ovarian) [µM]	TGI (KM12 colon) [µM]	TGI (SN12C renal) [µM]	TGI (BT-549 breast) [µM]	TGI (UACC-62 melanoma) [µM]	TGI (NCI-H23 lung) [µM]	TGI (RPMI-8226 leukemia) [µM]	TGI (SK-MEL-5 melanoma) [µM]	TGI (OVCAR-3 ovarian) [µM]
COc1ccccc1C1ON=C(c2ccc([N+](=O)[O-])cc2)N1C12CC3CC(CC(C3)C1)C2 (stereo unspecified)	> 100	> 100	> 100	> 100	> 100	> 100	> 100	> 100	> 100	> 100	> 100	> 100	> 100	> 100	> 100	> 100	> 100	> 100
COC(O)C(=O)c1ccc2c(c1)CC1(C2)Cc2cc3c(cc2C1=O)CCC3 (stereo unspecified)	60.7	31.9	35.3	35.7	30.8	35.9	30.5	31.1	43.6		43.9	29.6	31.8	34	56.2	32.7	29.4	34.5
O=C1CSC(c2ccccc2[N+](=O)[O-])N1c1ccc(-c2ccc(-n3c(-c4ccccc4)nc4ccccc4c3=O)cc2)cc1 (stereo unspecified)	> 100	> 100	> 100	> 100	> 100	> 100	> 100	> 100	> 100	> 100	> 100	> 100	> 100	> 100		> 100	> 100	> 100
CCOC(=O)C(Cc1ccc(OC(=O)c2ccc(OC)cc2)cc1)NC(=O)C(F)(F)F (stereo unspecified)	> 100	> 100	> 100	> 100	> 100	> 100	> 100	> 100	> 100	> 100	> 100	> 100	> 100	> 100	> 100	> 100	> 100	> 100
O=c1[nH]nc(Cc2c[nH]c3ccccc23)o1	> 100		> 100	> 100	> 100	> 100	> 100	> 100	> 100	> 100	> 100	> 100	> 100	> 100	> 100	> 100	> 100	> 100
COc1ccc(N2C(=O)C3c4[nH]c5ccc(Br)cc5c4C4CCC(C(C)(C)C)CC4C3C2=O)cc1 (stereo unspecified)	> 100	> 100	> 100	> 100	> 100	> 100		> 100	> 100	> 100	> 100	> 100	> 100	> 100	> 100	> 100	> 100	> 100
CCCCCCCCCCCCCCCCCCNC(=S)/N=C\C1=C(O)c2ccccc2C1=O	35	33.6	30.9		15.9	22	23.3	19.2	25.6	32	22.7	31.1	33.9		31.9	33.1	34.7	29.1
CC[C@@]1(C)CCC2c3ccc(O)cc3CC[C@H]2C1C (stereo partly specified)	35.5		30.2	36.1	34	30.3	30.4	30.4		33.8	36.7	34.3	33.8	28.4	36.2	39.5	30.7	37
O=C(c1ccccc1)c1ccc2[nH]c(-c3c(Cl)c(Cl)c(Cl)c(Cl)c3C(=O)N/N=C/c3cccc(Oc4ccccc4)c3)nc2c1	> 100	> 100	> 100	> 100	> 100	> 100	> 100	> 100	> 100	> 100	> 100	> 100	> 100		> 100	> 100	> 100	> 100
CC(=O)O[C@H]1CC[C@@]2(C)C(=CC[C@@H]3[C@@H]2CC[C@]2(C)c4c(C)nn(-c5ccccc5)c4C[C@@H]32)C1	67.2	44.5	> 100	45.3	> 100	> 100	47.3	37.2	75.3	> 100	86.7	> 100	23.8	39.3	31.3		> 100	> 100
COC(=O)C1(C#N)C(C)(C)N=C(c2ccccc2)C12CCCCC2 (stereo unspecified)	> 100	> 100	> 100	> 100	> 100	> 100	> 100	> 100		> 100	> 100	> 100	> 100	> 100	> 100	> 100	> 100	> 100
CCOC(=O)C1(C(=O)OCC)OC(C)=NC1(C(=O)OC)C(=O)OC	> 100	> 100	> 100		> 100	> 100	> 100	> 100	> 100	> 100	> 100	> 100	> 31.6	> 100	> 100	> 24.6	> 100	> 100
NCCCC[C@H](N)C(=O)Nc1ccc(-c2nc3ccccc3s2)cc1	47.6	39.2	35.1	33.9	> 100	25.1	26	49.1	71.1	40.1	34.9	74.3	84.9	59.7	67.7		94.4	37.2
